Measured values: a melting point compilation (Tetko et al.; mined from patent text by program, amines drawn as free bases though some values may be those of a salt)

First: Cc1ccnc(-c2cncc(OC3SCC(O)C(O)C3O)c2)c1 (stereo not given)
Second: Cn1cccc1-c1nc(-c2cccnc2)no1
The melting point of the first is higher: 166 °C for the first, 108 to 109 °C for the second.

First: C/C=C/C(=O)N1C(=O)OC(C)(C)[C@H]1c1ccccc1
Second: CN1C(=O)C[C@@H](c2ccccc2)[C@H]1CO
The melting point of the first is higher: 104 °C for the first, 93 to 95 °C for the second.

First: CCCOc1ccc(CCCOc2nn(Cc3ccccc3)cc2CC(=O)O)c(Oc2ncc(C(F)(F)F)cc2Cl)c1
Second: CCOC(=O)/C=C/c1ccc(OCCC2OCCO2)cc1Oc1ncc(C(F)(F)F)cc1Cl
The melting point of the first is lower: 96.5 to 97.5 °C for the first, 102 to 103 °C for the second.

First: Cc1ccc(/C=C/c2ccc3nc(C(=O)N[C@@H](Cc4ccc(OCc5ccccc5)cc4)C(=O)O)cn3c2)cc1
Second: CCOC(=O)/C=C/c1cn(Cc2ccc(OCc3csc(-c4ccccc4)n3)cc2)nc1-c1cccs1
The melting point of the first is higher: 266 to 267 °C for the first, 104 to 105 °C for the second.

First: O=[N+]([O-])C=C1CN=C(c2ccccc2)c2cc(Cl)sc2N1
Second: CCOC(=O)c1[nH]c2cc(Cl)c(Cl)cc2c1-c1ccccc1
The melting point of the first is lower: 154 to 156 °C for the first, 201 to 202 °C for the second.

First: CC(=O)c1c(N(C)C)c(-c2ccccc2)n(Cc2ccccc2Cl)c1C
Second: CSc1ccccc1C(=O)Nc1ccccc1
The melting point of the first is lower: 103 to 105 °C for the first, 148 to 149 °C for the second.

First: O=C(NC(=O)C(c1ccccc1)c1ccccc1)OC1CCCC1
Second: N#Cc1c(-c2ccccc2)c(-c2ccccc2)nn(CCC(=O)NCC(=O)O)c1=O
The melting point of the first is higher: 120 to 123 °C for the first, 113 to 115 °C for the second.

First: CC(=O)c1ccc(OCCCc2ccccc2)cc1
Second: O=Cc1ccc(OCc2ccsc2)cc1OC(C(=O)O)c1ccccc1 (racemic)
The melting point of the first is lower: 80 to 81 °C for the first, 172 to 174 °C for the second.

First: CCc1cccc(CC)c1NC(=O)C1c2ccccc2COc2ccc(C)cc21 (stereo not given)
Second: C=C(C(=O)OC)N(Cc1cc(C)ccc1NC(=O)c1ccccc1)S(=O)(=O)c1ccc(OC)cc1
The melting point of the first is higher: 202 to 203 °C for the first, 58 to 62 °C for the second.

Compared with `O=C1CCSc2ncccc21`, `O=C1CC(Cc2ccccc2Cl)CN1` (stereo not given) is higher in melting point: 66 to 68 °C for the first, 87 to 89 °C for the second.

First: CCCCCc1c(C(=O)NN2CC=CCC2)nn(-c2ccc(Cl)cc2Cl)c1-c1ccc(Cl)cc1
Second: CCCc1c(-c2ccc(C(=O)OC)cc2)oc2cc(S(=O)(=O)Cl)ccc2c1=O
The melting point of the first is higher: 150 °C for the first, 128 °C for the second.

Compared with `[O-][N+]1=C(c2ccccc2Cl)c2nc(Cl)ccc2-n2cnnc2C1`, `Nc1cnc(-c2ccncc2)c(-c2cccc(F)c2)n1` is lower in melting point: 242 to 244 °C for the first, 221 to 222 °C for the second.

Compared with `COCOc1ccc(C=CC(C)=O)cc1OC`, `C=CCNC(=O)C1=Cc2c1ccc(OC)c2OC` is higher in melting point: 73 to 75 °C for the first, 98 to 99 °C for the second.

First: N#Cc1ccccc1OCCCCCCCC(=O)O
Second: C=CCOc1ccccc1S(N)(=O)=O
The melting point of the first is lower: 83 to 85 °C for the first, 104 to 105 °C for the second.

First: Nc1ccc(Sc2ccc3c(c2)OCC(=O)N3)cc1
Second: CC(C)n1nc(-c2cnc(N)nc2-c2ccco2)ccc1=O
The melting point of the first is higher: 232 to 234 °C for the first, 215 °C for the second.

First: CC(C)(C)OC(=O)N1CCC(CO)(c2ccccc2)CC1
Second: CNC(=O)C(O)C1=CC2(CCCC2)c2ccccc21 (stereo not given)
The melting point of the first is lower: 64 °C for the first, 136 to 138 °C for the second.

First: CCCNCc1cnc2c(C)c(NC(=O)c3ccc(OC[C@@H]4CCCO4)cc3)ccc2c1
Second: Cc1c(NC(=O)c2ccc(-c3ccc(C(F)(F)F)cc3)cc2F)ccc2cc(CN3CCCC3)cnc12
The melting point of the first is lower: 121 to 122 °C for the first, 202 to 203 °C for the second.

First: COc1ccc(C(Cn2cc[nH]c2=O)=NO)cc1OC1CCCC1
Second: COc1ccc(-c2cc3nccnc3[nH]2)cc1OC
The melting point of the first is lower: 191 °C for the first, 212 to 214 °C for the second.

First: Cn1ncc(C(=O)O)c1C(=O)Nc1ccn2nc(-c3ccnc(F)c3)nc2c1
Second: O=C(Nc1ncco1)c1c(C(F)(F)F)nc2c(C(F)(F)F)cccc2c1O
The melting point of the first is higher: greater than 290 °C for the first, 258 °C for the second.

First: CC(C)(C)c1cc(O)cc(C(C)(C)C)c1S(=O)c1nnc(-c2ccccn2)o1 (stereo not given)
Second: CC(C)(C)c1cc(CCc2ccccc2NC(=O)NCC(C)(C)c2ccc(N3CCCC3)cc2)cc(C(C)(C)C)c1O
The melting point of the first is lower: 172 to 173 °C for the first, 195 to 196 °C for the second.

First: CNC(=O)N(C)c1cc(C(C)(C)C)on1
Second: CC(C)(C)OC(=O)Nc1ccc(F)c(F)c1
The melting point of the first is higher: 150 to 151 °C for the first, 135 to 137 °C for the second.

First: O=C(NCc1ccccc1)Nc1nnc(-c2ccc(CN3CCCCCC3)s2)o1
Second: Oc1ccc(-c2nnc(-c3ccccc3)o2)cc1
The melting point of the first is lower: 184 to 185 °C for the first, 256 °C for the second.

First: O=C(O)CC1=CC2(Cc3ccc(Br)cc3)C(=O)N(c3cc(Cl)cc(Cl)c3)C(=O)N2C1 (stereo not given)
Second: COc1ccc2c(c1)C(=O)C(=O)C1=C2OC2(CCN(Cc3ccc(F)cc3)CC2)CS1
The melting point of the first is lower: 102 °C for the first, 219 to 221 °C for the second.

First: C=C(OCCc1nc(C(C)C)c(Sc2cc(Cl)cc(Cl)c2)n1C)C12CC3CC(CC(C3)C1)C2
Second: CC(C)(C)C1(O)CCN(CC23CC(c4ccc(Cl)cc42)c2ccc(Cl)cc23)CC1
The melting point of the first is lower: 114 to 116 °C for the first, 194 to 196 °C for the second.

`CCCCCCCCCCCCCCCC(=O)N1C[C@H](O)C[C@H]1C(=O)OCCCCCCCCCCCC` and `CCCCCCCCCCCCCCCCOC[C@@H]1OCCC[C@H]1O` (relative stereo) cannot be ordered by melting point: 39 to 44 °C for the first, 41.5 to 43 °C for the second.

Compared with `CC1(O/N=C(\C(=O)O)c2csc(N)n2)CCCCC1`, `CC1(C)CCCC(Cl)(Cl)C(=O)N1` is lower in melting point: 203 to 204 °C for the first, 148 to 155 °C for the second.

First: O=C(O)C1Cc2c(c(Cl)cc3c(-c4cccc(Cl)c4)noc23)O1 (stereo not given)
Second: Cc1c(Sc2cccnn2)oc2ccc(Cl)cc12
The melting point of the first is higher: 168 to 169 °C for the first, 131 to 134 °C for the second.

First: CC1(C)SC2C(NC(=O)C(NC(=O)CBr)c3ccccc3)C(=O)N2C1c1nnn[nH]1 (stereo not given)
Second: CCc1ccc2c(=O)c(-c3nnn[nH]3)cn(C)c2c1
The melting point of the first is lower: 128 to 135 °C for the first, 180 to 181 °C for the second.

First: [N-]=[N+]=NCC1CN(c2cc(F)c(-c3cccnc3)c(F)c2)C(=O)O1 (stereo not given)
Second: Fc1ccc(F)c(CN2CCNc3ncc(I)cc32)c1Cl
The melting point of the first is lower: 97 to 98 °C for the first, 156 to 157 °C for the second.

First: O=C(C=Cc1ccncc1)c1ccc(F)cc1
Second: CN(C)C=CC(=O)c1ccc(OC[C@H]2CO[C@](Cn3ccnc3)(c3ccc(Cl)cc3Cl)O2)cc1 (relative stereo)
The melting point of the first is higher: 157 °C for the first, 145 °C for the second.

Compared with `COC(=O)c1ncccc1NC(=O)C(C)CSC(C)=O` (stereo not given), `CCOC(=O)CC(=O)Cc1ccc(OC)c([N+](=O)[O-])c1` is higher in melting point: 54 to 56 °C for the first, 87 to 88 °C for the second.

Compared with `COC(=O)CCC(C)C1CCC2C3CC=C4CC(OC(C)=O)CCC4(C)C3CCC12C` (stereo not given), `CCCCCC(=O)O[C@H]1C[C@H](O)C=C2C=C[C@H](C)[C@H](CC[C@@H]3C[C@@H](O)CC(=O)O3)[C@H]21` is lower in melting point: 152 °C for the first, 138 to 139 °C for the second.

First: C=C1CC(Cn2cc(C)c(=O)[nH]c2=O)(c2ccc(Cl)cc2)OC1=O (stereo not given)
Second: CC=Cc1cn(C2CC(O)C(CO)O2)c(=O)[nH]c1=O (stereo not given)
The melting point of the first is higher: 188 to 189 °C for the first, 178 °C for the second.

First: CCOC(=O)c1c(CCO)nc2cc(OC)c(OC)cc2c1-c1ccc(OC)c(OC)c1
Second: CCCOc1cc(-c2c(C(=O)OCC)c(Cn3cncn3)nc3cc(OC)c(OC)cc23)ccc1OC
The melting point of the first is higher: 150 to 151 °C for the first, 127 to 128 °C for the second.

First: CCC(n1cncn1)C(O)(Cn1cncn1)c1ccc(Cl)cc1 (stereo not given)
Second: COC(=O)c1ccccc1Nc1cccc(N2N=CN(C)N2)c1
The melting point of the first is higher: 168 to 169 °C for the first, 106 to 108 °C for the second.

Compared with `O=[N+]([O-])c1cn2c(n1)O[C@@H](COc1ccc3nc(N4CCN(Cc5ccc(OC(F)(F)F)cc5)CC4)sc3c1)CC2`, `Cc1cc(N2CCC(CN3CCN(S(=O)(=O)c4ccc(Br)cc4)CC3)CC2)nc(C)n1` is lower in melting point: 157 to 159 °C for the first, 73 to 74 °C for the second.

Compared with `C=CCOC1=C(O)[C@@H](CC/C=C\CCCCCCCCCCCCCC)OC1=O`, `CCCCc1nc2c(N)nc3cccnc3c2n1CCNC(=O)CC(C)CCC=C(C)C` (stereo not given) is higher in melting point: 49 to 53 °C for the first, 163 to 164 °C for the second.

First: N#Cc1ccc(Cl)c(C=NO)c1
Second: OCc1cc2ccccc2[nH]1
The melting point of the first is higher: 191 to 193 °C for the first, 73.5 to 74.4 °C for the second.

First: COc1cc(OC)cc(C2(Cl)C(C)(C)C2(C)C)c1
Second: COc1cc(OC)c2c(=O)[nH]c(-c3ccc(OC)c(-c4ccc(C(=O)N(C)C)cc4Cl)n3)nc2c1
The melting point of the first is lower: 119 to 121 °C for the first, 271 to 272 °C for the second.

Compared with `O=C1CCC2=C(CCc3cc(Cl)c(Cl)cc32)N1`, `Nc1c(Br)cc2c3c(cccc13)C(=O)N(O)C2=O` is higher in melting point: 260 to 261 °C for the first, 318 to 324 °C for the second.

First: COc1nc(NCCc2ccccc2)c2cc(C)sc2n1
Second: CN1CC(c2cc(OCc3ccccc3)ncn2)=C(O)C1=O
The melting point of the first is lower: 138 °C for the first, 203 to 204 °C for the second.

First: C[C@H](Cn1ncc2ccc3c(c21)C=CCO3)O[Si](C)(C)C(C)(C)C
Second: CC(C)(C)c1ccc2occ(N)c(=S)c2c1
The melting point of the first is lower: 58 to 59 °C for the first, 168 °C for the second.

Compared with `CSc1c(C(=O)O)ccc(Br)c1Cl`, `CCCc1c(CS(=O)Cc2ccc(-c3nnn[nH]3)cc2)ccc(C(C)=O)c1O` (stereo not given) is lower in melting point: 128 to 130 °C for the first, 112 to 116 °C for the second.

First: Cc1c(-c2ccccc2)[nH]c(N2CCCC2=O)c1C#N
Second: CCN(CC)CCSC1=C(C#N)C(c2ccccc2)(c2cccs2)C(=O)N1 (stereo not given)
The melting point of the first is lower: 140 to 141 °C for the first, 165 °C for the second.

First: O=C1Nc2ccc(F)cc2C(C#Cc2ccccn2)(C(F)(F)F)N1 (racemic)
Second: CC(N)CC(=O)Nc1c(OCC(F)(F)F)cccc1-c1ccccn1 (stereo not given)
The melting point of the first is higher: 155 °C for the first, 135 to 137 °C for the second.

First: CCN(c1ccc([N+](=O)[O-])cc1[N+](=O)[O-])S(=O)(=O)c1ccc(C)cc1
Second: COc1cc(C(=O)NS(=O)(=O)c2ccccc2C)ccc1Cc1cn(C)c2ccc(CC(C)NC(=O)N(C)C)cc12 (stereo not given)
The melting point of the first is higher: 135 to 136 °C for the first, 125 to 135 °C for the second.

First: CCCCn1c(=O)n(CCC)c(=O)c2c(N)n(CCCl)nc21
Second: Cc1nc2cccc3n(CCCCNS(=O)(=O)C(F)(F)F)c(=O)c1n23
The melting point of the first is lower: 118 to 121 °C for the first, 195 to 196 °C for the second.

First: O=C(NCC1COCCO1)C1CCCN(c2cccc3c2C(=O)N(Cc2ccncc2)C3=O)C1 (stereo not given)
Second: CC(C)c1ccc(N(CC(=O)N2CCOCC2)C(=O)C2CCCc3ccccc32)cc1 (stereo not given)
The melting point of the first is higher: 186 to 187 °C for the first, 180 °C for the second.

First: Cc1c(C)c2c(c(C)c1N)C(c1cccnc1)C(C)(C)O2 (stereo not given)
Second: COc1cc(OC)nc(C2(O)OC(=O)c3c2ccnc3C)n1 (stereo not given)
The melting point of the first is lower: 130 to 131 °C for the first, 203 to 204 °C for the second.

Compared with `N#CCN1C(=O)COc2cc(F)c([N+](=O)[O-])cc21`, `CCCCN(CCCCO)c1ccc(C=Cc2ccc(C=CC3=C(C#N)C(=C(C#N)C#N)OC3(C)C)s2)c(OCc2ccccc2)c1` is higher in melting point: 196 to 200 °C for the first, 216 to 217 °C for the second.
